Laboratory results reported in patent US11498899B2, “Nitrone herbicides” (FMC Corporation, priority 2016, dated 2022).

Legend:
[1] = system: foxtail, green (green foxtail, Setaria viridis); assay: Test A preemergence, visual injury rating 0-100; assay type: in vivo
[2] = system: kochia (Kochia scoparia); assay: Test A preemergence, visual injury rating 0-100; assay type: in vivo
[3] = system: ragweed (common ragweed, Ambrosia elatior); assay: Test A preemergence, visual injury rating 0-100; assay type: in vivo
[4] = system: pigweed (Amaranthus retroflexus); assay: Test A preemergence, visual injury rating 0-100; assay type: in vivo
[5] = system: ryegrass, Italian (Italian ryegrass, Lolium multiflorum); assay: Test A preemergence, visual injury rating 0-100; assay type: in vivo
[6] = system: ducksalad (Heteranthera limosa); assay: Test B flooded paddy test, visual rating 0-100; conditions: Flood, 250 g ai/ha, applied to paddy water, rated after 13 to 15 days
[7] = system: foxtail, green (green foxtail, Setaria viridis); assay: Test A postemergence, visual injury rating 0-100; assay type: in vivo; conditions: 0 to 100 scale
[8] = system: galium (catchweed bedstraw, Galium aparine); assay: Test A postemergence, visual injury rating 0-100; assay type: in vivo; conditions: 0 to 100 scale
[9] = system: blackgrass (Alopecurus myosuroides); assay: Test A postemergence, visual injury rating 0-100; assay type: in vivo; conditions: 0 to 100 scale
[10] = system: wheat (Triticum aestivum); assay: Test A postemergence, visual injury rating 0-100; assay type: in vivo; conditions: 0 to 100 scale
[11] = system: corn (Zea mays); assay: Test A postemergence, visual injury rating 0-100; assay type: in vivo; conditions: 0 to 100 scale
[12] = system: kochia (Kochia scoparia); assay: Test A postemergence, visual injury rating 0-100; assay type: in vivo; conditions: 0 to 100 scale
[13] = system: barnyardgrass (Echinochloa crus-galli); assay: Test A postemergence, visual injury rating 0-100; assay type: in vivo; conditions: 0 to 100 scale
[14] = system: ragweed (common ragweed, Ambrosia elatior); assay: Test A postemergence, visual injury rating 0-100; assay type: in vivo; conditions: 0 to 100 scale
[15] = system: pigweed (Amaranthus retroflexus); assay: Test A postemergence, visual injury rating 0-100; assay type: in vivo; conditions: 0 to 100 scale
[16] = system: ryegrass, Italian (Italian ryegrass, Lolium multiflorum); assay: Test A postemergence, visual injury rating 0-100; assay type: in vivo; conditions: 0 to 100 scale
[17] = system: rice (Oryza sativa); assay: Test B flooded paddy test, visual rating 0-100 (0 no effect, 100 complete control); conditions: Flood, 250 g ai/ha, applied to paddy water, rated after 13 to 15 days
[18] = system: barnyardgrass (Echinochloa crus-galli); assay: Test B flooded paddy test, visual rating 0-100; conditions: Flood, 250 g ai/ha, applied to paddy water, rated after 13 to 15 days
[19] = system: barnyardgrass (Echinochloa crus-galli); assay: Test A preemergence, visual injury rating 0-100 (0 no effect, 100 complete control); assay type: in vivo; conditions: for Barnyardgrass plant response rating (0 to 100 scale): 125 g ai/ha
[20] = 31 g ai/ha, 0 to 100 scale (0 no effect, 100 complete control), approx. 10 days

| SMILES | Foxtail, Green plant response rating (0 to 100 scale) ([1]; 125 g ai/ha) | Kochia plant response rating (0 to 100 scale) ([2]; 125 g ai/ha) | Ragweed plant response rating (0 to 100 scale) ([3]; 125 g ai/ha) | Pigweed plant response rating (0 to 100 scale) ([4]; 125 g ai/ha) | Ryegrass, Italian plant response rating (0 to 100 scale) ([5]; 125 g ai/ha) | Ducksalad plant response rating (0 to 100 scale) [6] | Foxtail, Green plant response rating ([7]; 125 g ai/ha) | Foxtail, Green plant response rating ([7]; 500 g ai/ha) | Galium plant response rating ([8]; 125 g ai/ha) | Blackgrass plant response rating ([9]; 125 g ai/ha) | Wheat plant response rating ([10]; 125 g ai/ha) | Corn plant response rating ([11]; 125 g ai/ha) | Kochia plant response rating ([12]; 125 g ai/ha) | Barnyardgrass plant response rating ([13]; 125 g ai/ha) | Ragweed plant response rating ([14]; 125 g ai/ha) | Pigweed plant response rating ([15]; 125 g ai/ha) | Ryegrass, Italian plant response rating ([16]; 125 g ai/ha) | Rice plant response rating (0 to 100 scale) [17] | Barnyardgrass plant response rating (0 to 100 scale) [18] | Barnyardgrass plant response rating (0 to 100 scale) [19] | further results |
| --- | --- | --- | --- | --- | --- | --- | --- | --- | --- | --- | --- | --- | --- | --- | --- | --- | --- | --- | --- | --- | --- |
| CC1=[N+]([O-])C(C(=O)Nc2cccc(F)n2)C(c2ccc(C(F)(F)F)cc2)C1 (racemic) [Compound 47] | 90 | 40 | 90 | 80 | 0 | 75 | 50 | 90 | 50 | 0 | 0 | 0 | 0 | 50 | 0 | 0 | 0 | 0 | 40 | 80 | Foxtail, Green plant response rating (0 to 100 scale) ([1]; 500 g ai/ha): 100; Kochia plant response rating (0 to 100 scale) ([2]; 500 g ai/ha): 90; Ragweed plant response rating (0 to 100 scale) ([3]; 500 g ai/ha): 100; Pigweed plant response rating (0 to 100 scale) ([4]; 500 g ai/ha): 100; Ryegrass, Italian plant response rating (0 to 100 scale) ([5]; 500 g ai/ha): 20; Galium plant response rating ([8]; 500 g ai/ha): 30; Blackgrass plant response rating ([9]; 500 g ai/ha): 0; Wheat plant response rating ([10]; 500 g ai/ha): 0; Corn plant response rating ([11]; 500 g ai/ha): 20; Kochia plant response rating ([12]; 500 g ai/ha): 0; Barnyardgrass plant response rating ([13]; 500 g ai/ha): 90; Ragweed plant response rating ([14]; 500 g ai/ha): 40; Pigweed plant response rating ([15]; 500 g ai/ha): 20; Ryegrass, Italian plant response rating ([16]; 500 g ai/ha): 50; Barnyardgrass plant response rating ([19]; 500 g ai/ha, 0 to 100 scale): 100 |
| CC1=[N+]([O-])[C@@H](C(=O)Nc2ccccc2F)[C@H](c2ccc(C(F)(F)F)cc2)C1 (relative stereo) [Compound 26, trans-N-(2-fluorophenyl)-3,4-dihydro-5-methyl-3-[4-(trifluoromethyl)phenyl]-2H-pyrrole-2-carboxamide 1-oxide] | 100 | 50 | 80 | 70 | 20 | 100 | 50 | 90 | 70 | 20 | 0 | 0 | 0 | 60 | 20 | 30 | 0 | 0 | 60 | 80 | Foxtail, Green plant response rating ([1]; 500 g ai/ha, 0 to 100 scale): 100; Kochia plant response rating ([2]; 500 g ai/ha, 0 to 100 scale): 90; Ragweed plant response rating ([3]; 500 g ai/ha, 0 to 100 scale): 90; Pigweed plant response rating ([4]; 500 g ai/ha, 0 to 100 scale): 90; Ryegrass, Italian plant response rating ([5]; 500 g ai/ha, 0 to 100 scale): 70; Galium plant response rating ([8]; 500 g ai/ha): 80; Blackgrass plant response rating ([9]; 500 g ai/ha): 60; Wheat plant response rating ([10]; 500 g ai/ha): 10; Corn plant response rating ([11]; 500 g ai/ha): 0; Kochia plant response rating ([12]; 500 g ai/ha): 10; Barnyardgrass plant response rating ([13]; 500 g ai/ha): 90; Ragweed plant response rating ([14]; 500 g ai/ha): 60; Pigweed plant response rating ([15]; 500 g ai/ha): 80; Ryegrass, Italian plant response rating ([16]; 500 g ai/ha): 20; Barnyardgrass plant response rating ([19]; 500 g ai/ha, 0 to 100 scale): 100 |
| CC1=[N+]([O-])[C@@H](C(=O)Nc2cccc(F)c2F)[C@H](c2ccc(F)c(F)c2)C1 [Compound 39] | 100 | 30 | 100 | 30 | 10 | 100 | 70 |  | 10 | 50 | 50 | 10 | 0 | 60 | 0 | 0 | 10 | 10 | 90 | 100 | Foxtail, Green plant response rating [1, 20]: 100; Kochia plant response rating [2, 20]: 0; Ragweed plant response rating [3, 20]: 0; Pigweed plant response rating [4, 20]: 0; Ryegrass, Italian plant response rating [5, 20]: 20; Foxtail, Green plant response rating ([7]; 31 g ai/ha): 10; Galium plant response rating ([8]; 31 g ai/ha): 0; Blackgrass plant response rating ([9]; 31 g ai/ha): 0; Wheat plant response rating ([10]; 31 g ai/ha): 0; Corn plant response rating ([11]; 31 g ai/ha): 0; Kochia plant response rating ([12]; 31 g ai/ha): 0; Barnyardgrass plant response rating ([13]; 31 g ai/ha): 0; Ragweed plant response rating ([14]; 31 g ai/ha): 0; Pigweed plant response rating ([15]; 31 g ai/ha): 0; Ryegrass, Italian plant response rating ([16]; 31 g ai/ha): 0; Barnyardgrass plant response rating [19, 20]: 100 |
| CC1=[N+]([O-])[C@H](C(=O)Nc2cccc(F)c2F)[C@@H](c2ccc(Cl)cc2)C1 [Compound 40, (2S,3R)-3-(4-chlorophenyl)-N-(2,3-difluorophenyl)-3,4-dihydro-5-methyl-2H-pyrrole-2-carboxamide 1-oxide] | 100 | 80 | 80 | 80 | 10 | 95 | 80 |  | 60 | 60 | 10 | 30 | 0 | 90 | 0 | 0 | 20 | 25 | 80 | 100 | Foxtail, Green plant response rating [1, 20]: 100; Kochia plant response rating [2, 20]: 0; Ragweed plant response rating [3, 20]: 20; Pigweed plant response rating [4, 20]: 0; Ryegrass, Italian plant response rating [5, 20]: 0; Foxtail, Green plant response rating ([7]; 31 g ai/ha): 40; Galium plant response rating ([8]; 31 g ai/ha): 10; Blackgrass plant response rating ([9]; 31 g ai/ha): 0; Wheat plant response rating ([10]; 31 g ai/ha): 0; Corn plant response rating ([11]; 31 g ai/ha): 20; Kochia plant response rating ([12]; 31 g ai/ha): 0; Barnyardgrass plant response rating ([13]; 31 g ai/ha): 80; Ragweed plant response rating ([14]; 31 g ai/ha): 0; Pigweed plant response rating ([15]; 31 g ai/ha): 0; Ryegrass, Italian plant response rating ([16]; 31 g ai/ha): 0; Barnyardgrass plant response rating [19, 20]: 100 |
